This note sets out measurements from ChEMBL document CHEMBL5465560, “Selectivity Literature for EUbOPEN Chemogenomic Library” (2024).

Some results are limits rather than exact numbers.

In experiment [1] the target is Mitogen-activated protein kinase 9 (Homo sapiens, UniProt P45984). Particulars: at 10 µM.
In experiment [2] the target is Serine/threonine-protein kinase PAK 6 (Homo sapiens) (UniProt Q9NQU5). The conditions noted are these: at 10 µM.
The target in experiment [3] is T1, Mitogen-activated protein kinase 13 (Homo sapiens) (UniProt O15264).
T1 sequence (whole entry): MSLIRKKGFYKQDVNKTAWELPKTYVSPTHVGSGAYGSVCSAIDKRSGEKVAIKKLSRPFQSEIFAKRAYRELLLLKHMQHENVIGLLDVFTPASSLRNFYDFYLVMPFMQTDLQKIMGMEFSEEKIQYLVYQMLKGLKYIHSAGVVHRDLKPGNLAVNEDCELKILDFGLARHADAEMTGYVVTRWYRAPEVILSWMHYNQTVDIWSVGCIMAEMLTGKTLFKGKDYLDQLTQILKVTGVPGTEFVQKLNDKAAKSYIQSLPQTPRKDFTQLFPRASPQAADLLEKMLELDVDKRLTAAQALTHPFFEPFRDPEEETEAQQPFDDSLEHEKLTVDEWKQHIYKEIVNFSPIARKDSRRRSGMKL
In words: Selectivity interaction (KinomeScan (DiscoverX)) EUB0000655a MAPK13. The conditions noted are these: at 10 µM.

Experiment [4] has as its target Histone-lysine N-methyltransferase 2C (Homo sapiens) (UniProt Q8NEZ4). The experiment is described as follows: Selectivity interaction (Transferase panel (protein, RNA, and DNA methyltransferases. and EP300 (acetyltransferase))) EUB0000270b MLL3. Particulars: at 10 µM.
The target of experiment [5] is T2, Peripheral plasma membrane protein CASK (Homo sapiens) (UniProt O14936).
T2 sequence (whole entry): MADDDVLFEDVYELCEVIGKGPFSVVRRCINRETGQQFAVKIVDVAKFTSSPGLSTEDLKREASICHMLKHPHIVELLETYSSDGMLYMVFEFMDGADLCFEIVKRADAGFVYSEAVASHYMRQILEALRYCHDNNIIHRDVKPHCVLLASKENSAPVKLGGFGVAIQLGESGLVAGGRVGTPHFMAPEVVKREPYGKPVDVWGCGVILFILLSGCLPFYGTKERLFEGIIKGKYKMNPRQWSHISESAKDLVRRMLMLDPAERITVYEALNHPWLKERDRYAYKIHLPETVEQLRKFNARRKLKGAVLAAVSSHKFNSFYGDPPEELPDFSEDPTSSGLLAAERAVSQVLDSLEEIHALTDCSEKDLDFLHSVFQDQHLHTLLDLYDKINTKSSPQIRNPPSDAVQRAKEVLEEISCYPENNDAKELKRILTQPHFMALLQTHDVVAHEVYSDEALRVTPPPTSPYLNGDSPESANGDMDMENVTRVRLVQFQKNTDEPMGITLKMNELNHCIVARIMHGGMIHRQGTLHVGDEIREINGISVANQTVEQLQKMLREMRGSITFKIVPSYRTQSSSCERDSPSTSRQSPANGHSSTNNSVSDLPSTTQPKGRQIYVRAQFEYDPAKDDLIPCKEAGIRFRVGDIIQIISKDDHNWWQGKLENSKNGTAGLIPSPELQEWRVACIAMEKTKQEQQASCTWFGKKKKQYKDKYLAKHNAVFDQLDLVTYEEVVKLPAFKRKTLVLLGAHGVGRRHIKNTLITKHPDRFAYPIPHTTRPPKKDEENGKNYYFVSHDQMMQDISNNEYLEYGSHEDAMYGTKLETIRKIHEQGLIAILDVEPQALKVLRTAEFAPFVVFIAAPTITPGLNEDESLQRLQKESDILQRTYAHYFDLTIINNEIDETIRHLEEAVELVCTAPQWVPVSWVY
The experiment is described as follows: Selectivity interaction (KinomeScan (DiscoverX)) EUB0000618a CASK. The conditions noted are these: at 10 µM.

The target in experiment [6] is T3, Histone-lysine N-methyltransferase EHMT2 (Homo sapiens) (UniProt Q96KQ7).
T3 sequence (whole entry): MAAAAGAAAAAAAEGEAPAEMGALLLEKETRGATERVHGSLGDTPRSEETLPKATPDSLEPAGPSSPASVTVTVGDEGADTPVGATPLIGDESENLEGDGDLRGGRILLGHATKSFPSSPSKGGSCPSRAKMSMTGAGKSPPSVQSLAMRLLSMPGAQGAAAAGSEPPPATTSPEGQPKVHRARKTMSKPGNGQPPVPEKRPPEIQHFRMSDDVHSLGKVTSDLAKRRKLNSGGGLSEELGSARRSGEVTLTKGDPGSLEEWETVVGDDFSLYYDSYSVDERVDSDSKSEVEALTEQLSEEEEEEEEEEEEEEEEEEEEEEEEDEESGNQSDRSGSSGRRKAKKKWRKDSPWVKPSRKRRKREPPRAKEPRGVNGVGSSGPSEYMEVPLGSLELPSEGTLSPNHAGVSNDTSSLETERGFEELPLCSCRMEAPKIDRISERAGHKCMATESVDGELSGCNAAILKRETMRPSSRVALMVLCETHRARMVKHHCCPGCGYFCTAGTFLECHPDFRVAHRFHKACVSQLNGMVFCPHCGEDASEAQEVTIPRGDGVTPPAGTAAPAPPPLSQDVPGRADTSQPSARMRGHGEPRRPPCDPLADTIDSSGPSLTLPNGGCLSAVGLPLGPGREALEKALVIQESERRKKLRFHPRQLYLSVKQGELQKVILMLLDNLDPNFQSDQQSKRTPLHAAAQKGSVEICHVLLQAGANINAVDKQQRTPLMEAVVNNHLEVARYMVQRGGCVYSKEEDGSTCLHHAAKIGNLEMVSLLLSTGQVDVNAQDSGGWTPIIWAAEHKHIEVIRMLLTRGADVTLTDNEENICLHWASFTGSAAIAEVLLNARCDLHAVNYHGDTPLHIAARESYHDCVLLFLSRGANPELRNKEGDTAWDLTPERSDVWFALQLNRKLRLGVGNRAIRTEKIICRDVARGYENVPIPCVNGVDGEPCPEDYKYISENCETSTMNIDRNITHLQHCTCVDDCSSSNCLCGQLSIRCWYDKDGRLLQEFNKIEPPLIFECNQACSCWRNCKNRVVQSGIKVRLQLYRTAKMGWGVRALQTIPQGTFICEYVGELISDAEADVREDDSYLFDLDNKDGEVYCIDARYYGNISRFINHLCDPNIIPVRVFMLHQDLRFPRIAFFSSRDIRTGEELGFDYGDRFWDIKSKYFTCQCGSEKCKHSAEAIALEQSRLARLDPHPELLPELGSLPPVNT
In words: Selectivity interaction (Methyltransferase screen (radiometric assays, panel of 8 PRMTs, 21 protein lysine methyltransferases, 3 DNA methyltransferases, and one RNA methyltransferase)) EUB0000272b EHMT2.

Sequence of Mitogen-activated protein kinase 9 (P45984 whole entry, looked up): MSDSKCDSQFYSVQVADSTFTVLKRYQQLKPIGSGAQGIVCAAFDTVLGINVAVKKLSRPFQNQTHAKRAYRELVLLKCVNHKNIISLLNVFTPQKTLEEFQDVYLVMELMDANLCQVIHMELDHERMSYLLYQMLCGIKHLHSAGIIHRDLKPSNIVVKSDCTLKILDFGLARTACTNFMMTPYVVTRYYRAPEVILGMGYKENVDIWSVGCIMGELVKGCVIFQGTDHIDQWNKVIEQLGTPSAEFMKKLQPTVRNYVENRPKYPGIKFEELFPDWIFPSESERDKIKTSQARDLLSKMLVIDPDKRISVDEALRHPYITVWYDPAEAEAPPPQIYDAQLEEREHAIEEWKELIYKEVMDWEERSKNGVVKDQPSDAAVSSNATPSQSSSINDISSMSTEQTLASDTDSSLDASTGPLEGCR
Sequence of Serine/threonine-protein kinase PAK 6 (Homo sapiens) (Q9NQU5 whole entry, looked up): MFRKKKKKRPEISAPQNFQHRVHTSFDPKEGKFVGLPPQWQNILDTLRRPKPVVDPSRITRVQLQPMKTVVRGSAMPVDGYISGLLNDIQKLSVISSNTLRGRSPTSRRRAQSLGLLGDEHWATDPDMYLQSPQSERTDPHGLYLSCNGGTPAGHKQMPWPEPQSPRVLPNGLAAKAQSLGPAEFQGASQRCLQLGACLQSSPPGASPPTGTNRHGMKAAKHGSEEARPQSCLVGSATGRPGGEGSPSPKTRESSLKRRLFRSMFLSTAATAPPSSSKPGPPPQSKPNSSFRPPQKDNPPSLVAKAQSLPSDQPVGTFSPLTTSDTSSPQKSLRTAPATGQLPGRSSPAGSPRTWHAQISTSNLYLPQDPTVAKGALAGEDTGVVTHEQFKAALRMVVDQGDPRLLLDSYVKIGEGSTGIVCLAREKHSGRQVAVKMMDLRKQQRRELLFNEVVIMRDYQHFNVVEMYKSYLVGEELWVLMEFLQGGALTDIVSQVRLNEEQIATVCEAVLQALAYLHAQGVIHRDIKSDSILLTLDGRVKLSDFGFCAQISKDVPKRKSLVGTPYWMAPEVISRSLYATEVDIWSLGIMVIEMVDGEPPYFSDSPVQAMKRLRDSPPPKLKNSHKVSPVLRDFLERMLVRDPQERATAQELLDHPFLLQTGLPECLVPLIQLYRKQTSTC

In the case of `CCN(CC)CCCCNc1ncc2cc(-c3cc(OC)cc(OC)c3)c(NC(=O)NC(C)(C)C)nc2n1`, the % of control in experiment [1] and in experiment [2] was 100% each time.
In experiment [3], `CN(C)CCOc1ccc(-c2nc(-c3ccncc3)c(-c3ccc4c(c3)CC/C4=N\O)[nH]2)cc1` displayed a % of control of 87%.
Regarding `Cc1cc(CN)cc(C)c1-c1ncn(C)c1-c1cncn1C`, the % activity in experiment [4] was over 80%.
`O[C@H]1CC[C@H](Nc2ncc3nc(Nc4c(F)cc(F)cc4F)n([C@H]4CCOC4)c3n2)CC1` showed a % of control in experiment [5] of 95%.
For the compound `Cc1cc(C)cc([C@H]2c3cc(C)ccc3NC(=O)CN2C(=O)c2ccc(Br)s2)c1`, the values for the % of activity in experiment [6] (at 1 µM) and in experiment [6] (at 10 µM) were 95.7% and 98.3%, respectively.
